Source: patent US20010041801A1, “Water soluble fullerenes with antiviral activity” (The Regents of the University of California, priority 1994, published 2001)
Entries after “also recorded” stand apart in the source; their conditions may differ. Like-named read-outs stand apart in the source and are kept apart here.

Tests used:
[1] = Cytotoxicity in Vero cells; format: cell-based; details: African green monkey, Vero cells; day 3
Vero cells = assay: Cytotoxicity in Vero cells; format: cell-based; details: b68: up to 100 μM
HIV-1 and HIV-2 = assay: Antiviral activity in acutely or chronically infected human lymphocytes (summary statements); format: cell-based
Excerpt: The water soluble C60 derivatives for inactivating HIV by interacting with HIV by Van der Waals contacts with the nonpolar HIVP surface, are substituted symmetrically with organic moieties comprising from 1 to about 20 carbon atoms each and optionally further comprising polar heteroatoms, such as oxygen and nitrogen. The preferred fullerene derivatives are diamino derivatives synthesized in three steps from C60 via a suitably substituted diphenyldiazomethane. High-resolution mass spectrometric analysis of these compounds is possible only under the mild conditions of matrix-assisted laser desorption/ionization Fourier transform mass spectrometry. Direct infrared or ultraviolet laser desorption degrades the compounds so that only C60 ions are observed, in either positive or negative mode. Virus inactivation assays are provided for confirming activity of the C60 derivatives against human immunodeficiency virus type 1 (HIV-1) and HIV-2. […] Inhibition of protease (HIVP) and reverse transcriptase (HIVRT) is also shown.
The therapeutic and prophylactic efficacy of the compounds of this invention has been shown by in vitro assays. […]

HIV-1LAI = assay: Virus inactivation assay with cell-free virus; format: cell-based; details: 5 to 25 μM; cell-free virus incubated 2 hours at 37° C.; RT assay day 6
Experimental: Cell culture evaluation techniques well known in the art can also be used to determine the antiviral and antivirucidal properties of the compounds of this invention. For instance about 200 50% tissue culture infective doses of the virus to be tested and 2 ml of the compound to be tested are incubated for 2 hours at 37° C. After incubation, a growth medium is added to each tube and the tube is centrifuged at about 40,000 rpm for 30 minutes at 4° C. The supernatant is removed and the virus pellet is resuspended in fresh medium. The virions are added to human PBMC that has been stimulated for 2 days with phytohemagglutinin in 25 cm^2 flasks in a total of 10 ml of growth medium. After about six days, residual virus in the supernatant are quantitated by an RT assay such as that described by R. F. Schinazi, et al., Antimicrob. Agents Chemother., 36:2423-2431, 1992, or in Current Protocols in Molecular Biology, Ed. by F. M. Ausubel, Current Protocols, Vol. 1, §9.13.3 and in Example 8, Table 2 below.
To confirm these findings, inactivation studies with HIV-1LAI were performed. […] On day 6, residual virus in the supernatant was quantitated by an RT assay, as described previously (R. F. Schinazi, et al., Antimicrob. Agents Chemother., 36:2423-2431, 1992). […]

[2] = Cytotoxicity in CEM cells; format: cell-based; details: human, CEM cells; cell counts on day 6
CEM cells = assay: Cytotoxicity in CEM cells; format: cell-based; details: b68: up to 100 μM
pepsin = pepsin (Homo sapiens, UniProt P0DJD8); assay: Pepsin inhibition assay; format: biochemical; details: 0.028 μM enzyme, 0.2 M sodium citrate pH 2.0, 37° C.; read-out: IC50 against pepsin
pepsin, sequence (P0DJD8 63-388): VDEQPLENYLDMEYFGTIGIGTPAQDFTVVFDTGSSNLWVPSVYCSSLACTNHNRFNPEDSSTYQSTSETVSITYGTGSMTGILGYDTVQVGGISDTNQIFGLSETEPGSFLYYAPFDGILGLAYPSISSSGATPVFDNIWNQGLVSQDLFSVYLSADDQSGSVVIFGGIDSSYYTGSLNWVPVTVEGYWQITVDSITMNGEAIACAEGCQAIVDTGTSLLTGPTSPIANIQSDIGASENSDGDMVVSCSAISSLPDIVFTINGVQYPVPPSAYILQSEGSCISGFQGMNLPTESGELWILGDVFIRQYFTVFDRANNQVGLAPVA
Excerpt: Compound 2c also has antiprotease activity. […] The method used for the assay was similar to that described by Ido, et al., J. Biol. Chem., 266:24359-24366, 1991).

HIV-1 = HIV-1 p24 antigen assay in supernatants of acutely infected PBMC; format: cell-based; details: Human immunodeficiency virus 1; PBMC acutely infected with HIV-1
Experimental: To determine whether the fullerene may bind tightly to inactivate the viral RT, we also measured levels of HIV-1 p24 in supernatants of treated and untreated cultures. Clarified supernatants were treated with Triton X-100 (Sigma Chemicals, St. Louis, Mo.) and tested for HIV-1 antigen by immunocapture with a commercial kit (Abbott, North Chicago, Ill.).

[3] = tested on: nevirapine (BI-RG587)-resistant HIV-1; assay: Susceptibility of nevirapine-resistant HIV-1; format: cell-based; details: Human immunodeficiency virus 1, read-out: EC50 against nevirapine-resistant HIV-1

O=C(O)CCC(=O)NCCc1ccc(C2(c3ccc(CCNC(=O)CCC(=O)O)cc3)C34c5c6c7c8c9c%10c(c%11c%12c3c3c5c5c%13c6c6c7c7c9c9c%14c%10c%10c%11c%11c%12c%12c3c3c5c5c%13c%13c6c6c7c9c7c9c%14c%10c%10c%11c%11c%12c3c3c5c5c%13c6c7c6c9c%10c%11c3c56)C824)cc1 [Compound 2c, bis(monosuccinimide) derivative of p,p′-bis(2-aminoethyl)diphenyl-C60]
IC50 at 3 days [1]: > 100 µM | cytotoxicity in Vero cells (Vero cells): No cytotoxicity; also recorded: noncytotoxic | EC50 (HIV-1 and HIV-2; Human immunodeficiency virus 1, H9, HIV-1, summary, read-out: EC50, acutely and chronically HIV-1 infected PBMC and chronically infected H9 cells): 7 µM | EC50 (HIV-1 and HIV-2; Lymphocyte, average over assays, read-out: EC50 averaging, HIV-1 and HIV-2 in acute or chronically infected human lymphocytes): ~6 µM | reduction of virus infectivity relative to untreated control (HIV-1LAI): more than 95% | IC50 at 6 days [2]: > 100 µM | cytotoxicity in CEM cells (CEM cells): No cytotoxicity; also recorded: noncytotoxic | IC50 (pepsin): 20 µM | EC50 (HIV-1): 50 µM | EC50 [3]: 8.7 µM
